Entries after “also recorded” stand apart in the source; their conditions may differ. Read-outs that look alike come from different tables or passages of the source. Blank lines part the entries; values can stand above or below the molecule they belong to.
Legend:
[1] = GSH reactivity assay for model compounds (LC/MS); assay type: physicochemical; conditions: 100 μM 1i and 5 mM GSH in PBS buffer, pH 8, 37 °C (n = 3)
BTK [2] = biological target: T1, BTK (Homo sapiens, UniProt Q06187); assay: HTS with the chemiluminescent probe 3l (%BTK binding inhibition); conditions: 10 μM compound, 0.75 μM BTK
T1 sequence (Q06187 402-655 limits assumed): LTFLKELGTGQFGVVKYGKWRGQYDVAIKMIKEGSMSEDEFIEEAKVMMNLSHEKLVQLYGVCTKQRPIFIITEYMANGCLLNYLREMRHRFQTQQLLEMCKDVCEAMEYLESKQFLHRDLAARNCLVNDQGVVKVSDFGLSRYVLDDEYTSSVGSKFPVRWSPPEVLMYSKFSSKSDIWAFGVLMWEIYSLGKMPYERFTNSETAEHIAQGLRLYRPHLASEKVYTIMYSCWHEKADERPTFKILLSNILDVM

BTK [3] = biological target: T1, BTK; assay: biochemical; conditions: read-out: BTK inhibition (%), 0.75 uM BTK, […] probe 3l, 15 min preincubation
BTK [4] = biological target: T1, BTK; assay: Fluorescence intensity measurement of CoLDR turn-on probe; assay type: binding; conditions: 2 μM probe, 2 μM BTK
BSA = BSA (Bos taurus, UniProt P02769); assay: Turn-on fluorescence selectivity control with BSA; assay type: binding; conditions: 10 μM BSA with 2 μM 3k
Chain of BSA (P02769 25-607): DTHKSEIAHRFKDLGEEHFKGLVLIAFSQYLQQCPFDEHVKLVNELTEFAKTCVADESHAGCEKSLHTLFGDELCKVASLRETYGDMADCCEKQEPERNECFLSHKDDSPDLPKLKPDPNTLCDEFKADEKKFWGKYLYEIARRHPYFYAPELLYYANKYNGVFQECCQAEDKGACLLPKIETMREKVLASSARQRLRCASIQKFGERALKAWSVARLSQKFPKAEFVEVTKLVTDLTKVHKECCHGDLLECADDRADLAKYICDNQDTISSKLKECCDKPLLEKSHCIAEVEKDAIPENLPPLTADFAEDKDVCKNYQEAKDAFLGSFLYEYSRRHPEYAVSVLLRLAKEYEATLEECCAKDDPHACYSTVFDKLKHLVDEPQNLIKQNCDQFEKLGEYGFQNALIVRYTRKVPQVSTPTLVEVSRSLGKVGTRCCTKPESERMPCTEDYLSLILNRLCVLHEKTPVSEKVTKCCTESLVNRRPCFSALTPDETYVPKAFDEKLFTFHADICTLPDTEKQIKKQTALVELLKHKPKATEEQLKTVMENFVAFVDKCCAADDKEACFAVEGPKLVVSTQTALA
Excerpt: The fact that a specific leaving group is released as a function of selective binding of a target protein can be used to functionalize irreversible inhibitors, for example as turn-on fluorescent probes. To assess the applicability and generality of this approach, we chose three therapeutic targets for which acrylamide inhibitors are available: BTK, EGFR, and K-RAS^G12C as model systems. Initially, we treated 3k (Figure 6A) with BTK, measured the released coumarin fluorescence, and validated the labeling via LC/MS (Figure 6B,C). […] We could also […] the rate of the reaction by using 20:1 equiv of protein:probe (Figure S16). […] The release can also be inhibited by preincubation of BTK with iodoacetamide alkyne (IAA; Figure S17B).
Figure S17. […] A. 10 μM BSA with 2
B. 2 μM BTK fully labeled with IAA (red) compared to 2 μM non labeled BTK (blue) with 2 μM 3k. The lack of signal for the labeled BTK indicated the fluorescence is triggered by a free cysteine.
(1 picture or pasted object on this page, not shown here)

wild-type BTK = wild-type BTK (Homo sapiens, UniProt Q06187); assay: In vitro kinase activity assay (Nanosyn)
Chain of wild-type BTK (Q06187 whole entry): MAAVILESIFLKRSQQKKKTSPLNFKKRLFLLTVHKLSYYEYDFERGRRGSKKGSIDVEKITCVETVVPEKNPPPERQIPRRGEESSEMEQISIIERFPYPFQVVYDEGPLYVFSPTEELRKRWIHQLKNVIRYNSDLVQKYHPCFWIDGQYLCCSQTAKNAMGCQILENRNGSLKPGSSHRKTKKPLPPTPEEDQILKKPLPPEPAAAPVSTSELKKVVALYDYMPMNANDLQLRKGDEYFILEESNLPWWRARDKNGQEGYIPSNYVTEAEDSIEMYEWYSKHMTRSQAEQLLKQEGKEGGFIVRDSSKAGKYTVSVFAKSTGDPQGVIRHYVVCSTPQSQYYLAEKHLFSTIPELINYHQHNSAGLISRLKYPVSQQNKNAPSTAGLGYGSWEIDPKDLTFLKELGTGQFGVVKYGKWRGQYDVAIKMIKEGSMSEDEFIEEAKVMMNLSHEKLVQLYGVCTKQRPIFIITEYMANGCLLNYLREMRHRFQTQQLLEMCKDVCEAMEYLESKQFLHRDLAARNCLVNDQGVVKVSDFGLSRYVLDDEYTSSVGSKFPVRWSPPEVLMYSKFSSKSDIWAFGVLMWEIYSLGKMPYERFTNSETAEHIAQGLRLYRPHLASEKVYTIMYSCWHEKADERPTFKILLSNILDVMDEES

BTK [5] = biological target: T1, BTK; assay: Chemiluminescence emission of probe 3l with BTK; conditions: 2 μM probe, 2 μM BTK
Mino cells = assay: In-gel fluorescence activity-based profiling (in situ proteomic labeling); assay type: cell-based; conditions: Mino cells treated for 2 h, TAMRA-azide click
Protocol: Mino cells were treated for 2 h with either 0.1% DMSO or the indicated concentrations of IA-alkyne, 2a, 2b, and 2c. The cells were lysed with RIPA buffer (Sigma), and protein concentration was determined using the BCA protein assay (Thermo Fisher Scientific). Lysates were then diluted to 2 mg/mL in PBS and clicked to TAMRA-azide (click chemistry tools). Click reaction was performed using a final concentration of 40 μM TAMRA-azide, 3 mM CuSO4, 3 mM tris(3-hydroxypropyltriazolylmethyl)amine (THPTA, Sigma), and 3.7 mM sodium L-ascorbate (Sigma) in a final volume of 60 μL. The samples were incubated at 25 °C for 2 h. A 20 μL amount of 4× LDS sample buffer (NuPAGE, Thermo Fischer Scientific) was added followed by a 10 min incubation at 70 °C. The samples were then loaded on a 4–20% Bis-Tris gel (SurePAGE, GeneScript) and imaged using a Typhoon FLA 9500 scanner.

EGFR = EGFR (Homo sapiens, UniProt P00533); assay: In vitro kinase activity assay (Nanosyn); assay type: biochemical; conditions: rounded; 2 h preincubation, 5 μM ATP
Chain of EGFR (P00533 25-1210): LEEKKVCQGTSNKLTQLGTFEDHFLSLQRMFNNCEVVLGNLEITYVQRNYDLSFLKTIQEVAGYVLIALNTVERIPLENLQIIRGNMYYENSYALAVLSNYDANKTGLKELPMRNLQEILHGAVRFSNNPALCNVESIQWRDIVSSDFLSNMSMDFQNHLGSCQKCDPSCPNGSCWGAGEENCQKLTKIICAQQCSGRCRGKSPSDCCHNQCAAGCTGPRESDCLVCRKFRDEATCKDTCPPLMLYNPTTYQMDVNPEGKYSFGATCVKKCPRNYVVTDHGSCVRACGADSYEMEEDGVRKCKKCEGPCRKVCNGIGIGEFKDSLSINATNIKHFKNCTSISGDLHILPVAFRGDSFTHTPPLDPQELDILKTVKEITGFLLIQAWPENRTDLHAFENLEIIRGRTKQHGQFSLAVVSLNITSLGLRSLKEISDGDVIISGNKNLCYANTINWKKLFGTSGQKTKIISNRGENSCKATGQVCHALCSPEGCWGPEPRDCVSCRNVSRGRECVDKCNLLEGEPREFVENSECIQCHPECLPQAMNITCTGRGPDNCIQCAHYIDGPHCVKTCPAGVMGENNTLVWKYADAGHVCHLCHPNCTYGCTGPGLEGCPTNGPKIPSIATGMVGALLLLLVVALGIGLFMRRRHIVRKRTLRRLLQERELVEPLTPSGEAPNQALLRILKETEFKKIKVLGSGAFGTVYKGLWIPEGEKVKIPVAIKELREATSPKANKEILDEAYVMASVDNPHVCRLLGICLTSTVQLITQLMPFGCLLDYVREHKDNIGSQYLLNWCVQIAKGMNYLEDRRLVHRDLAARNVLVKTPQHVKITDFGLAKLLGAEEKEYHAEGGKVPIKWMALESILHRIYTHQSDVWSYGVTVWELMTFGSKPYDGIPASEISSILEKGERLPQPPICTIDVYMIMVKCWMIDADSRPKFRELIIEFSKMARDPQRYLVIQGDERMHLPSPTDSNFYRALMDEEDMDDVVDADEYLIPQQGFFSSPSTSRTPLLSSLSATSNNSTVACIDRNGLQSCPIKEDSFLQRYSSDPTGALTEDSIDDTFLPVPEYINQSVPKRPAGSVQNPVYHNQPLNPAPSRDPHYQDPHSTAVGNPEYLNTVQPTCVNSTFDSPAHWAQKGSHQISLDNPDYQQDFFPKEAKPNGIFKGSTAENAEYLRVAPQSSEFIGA

primary mouse B cells = assay: B-cell response experiment (anti-IgM activation, CD86 by flow cytometry); assay type: cell-based; conditions: representative FACS plot, concentration not given
BLK = BLK (Homo sapiens, UniProt P51451); assay: In vitro kinase activity assay (Nanosyn)
Chain of BLK (P51451 whole entry, species assumed): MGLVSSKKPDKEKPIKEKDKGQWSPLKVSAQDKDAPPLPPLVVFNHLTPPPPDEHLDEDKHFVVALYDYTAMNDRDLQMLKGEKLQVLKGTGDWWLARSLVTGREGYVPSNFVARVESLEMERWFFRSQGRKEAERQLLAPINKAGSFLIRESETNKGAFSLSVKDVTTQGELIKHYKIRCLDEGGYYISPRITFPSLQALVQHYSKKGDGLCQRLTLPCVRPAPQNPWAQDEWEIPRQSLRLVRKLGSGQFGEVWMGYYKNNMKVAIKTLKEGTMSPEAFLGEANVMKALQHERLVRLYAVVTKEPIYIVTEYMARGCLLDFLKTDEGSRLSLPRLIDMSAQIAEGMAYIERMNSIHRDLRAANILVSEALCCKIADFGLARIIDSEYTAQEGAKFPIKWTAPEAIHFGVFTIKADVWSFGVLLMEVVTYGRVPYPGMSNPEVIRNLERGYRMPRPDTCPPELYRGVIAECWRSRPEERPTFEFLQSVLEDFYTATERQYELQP

BMX = biological target: T2, BMX (Homo sapiens, UniProt P51813); assay: In vitro kinase activity assay (Nanosyn)
T2 sequence (P51813 1-675): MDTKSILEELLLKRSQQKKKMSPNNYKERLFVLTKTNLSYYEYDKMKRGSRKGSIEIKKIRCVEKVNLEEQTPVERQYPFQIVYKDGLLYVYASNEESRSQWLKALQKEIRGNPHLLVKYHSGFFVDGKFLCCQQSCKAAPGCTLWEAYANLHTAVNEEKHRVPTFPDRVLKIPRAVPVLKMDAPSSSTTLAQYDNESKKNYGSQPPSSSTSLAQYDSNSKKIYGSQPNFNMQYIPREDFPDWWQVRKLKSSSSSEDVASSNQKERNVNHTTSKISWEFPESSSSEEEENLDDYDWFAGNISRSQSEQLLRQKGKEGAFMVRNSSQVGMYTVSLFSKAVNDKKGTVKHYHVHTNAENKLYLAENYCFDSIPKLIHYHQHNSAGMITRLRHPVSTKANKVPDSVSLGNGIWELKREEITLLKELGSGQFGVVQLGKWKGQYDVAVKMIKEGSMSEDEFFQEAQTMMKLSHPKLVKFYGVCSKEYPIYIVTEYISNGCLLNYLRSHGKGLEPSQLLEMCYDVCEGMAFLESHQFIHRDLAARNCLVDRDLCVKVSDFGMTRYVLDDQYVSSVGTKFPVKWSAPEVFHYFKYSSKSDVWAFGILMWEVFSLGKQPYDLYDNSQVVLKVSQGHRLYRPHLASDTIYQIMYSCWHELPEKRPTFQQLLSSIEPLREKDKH

ERBB2 = ERBB2 (Homo sapiens, UniProt P04626); assay: In vitro kinase activity assay (Nanosyn)
Chain of ERBB2 (P04626 23-1255, species assumed): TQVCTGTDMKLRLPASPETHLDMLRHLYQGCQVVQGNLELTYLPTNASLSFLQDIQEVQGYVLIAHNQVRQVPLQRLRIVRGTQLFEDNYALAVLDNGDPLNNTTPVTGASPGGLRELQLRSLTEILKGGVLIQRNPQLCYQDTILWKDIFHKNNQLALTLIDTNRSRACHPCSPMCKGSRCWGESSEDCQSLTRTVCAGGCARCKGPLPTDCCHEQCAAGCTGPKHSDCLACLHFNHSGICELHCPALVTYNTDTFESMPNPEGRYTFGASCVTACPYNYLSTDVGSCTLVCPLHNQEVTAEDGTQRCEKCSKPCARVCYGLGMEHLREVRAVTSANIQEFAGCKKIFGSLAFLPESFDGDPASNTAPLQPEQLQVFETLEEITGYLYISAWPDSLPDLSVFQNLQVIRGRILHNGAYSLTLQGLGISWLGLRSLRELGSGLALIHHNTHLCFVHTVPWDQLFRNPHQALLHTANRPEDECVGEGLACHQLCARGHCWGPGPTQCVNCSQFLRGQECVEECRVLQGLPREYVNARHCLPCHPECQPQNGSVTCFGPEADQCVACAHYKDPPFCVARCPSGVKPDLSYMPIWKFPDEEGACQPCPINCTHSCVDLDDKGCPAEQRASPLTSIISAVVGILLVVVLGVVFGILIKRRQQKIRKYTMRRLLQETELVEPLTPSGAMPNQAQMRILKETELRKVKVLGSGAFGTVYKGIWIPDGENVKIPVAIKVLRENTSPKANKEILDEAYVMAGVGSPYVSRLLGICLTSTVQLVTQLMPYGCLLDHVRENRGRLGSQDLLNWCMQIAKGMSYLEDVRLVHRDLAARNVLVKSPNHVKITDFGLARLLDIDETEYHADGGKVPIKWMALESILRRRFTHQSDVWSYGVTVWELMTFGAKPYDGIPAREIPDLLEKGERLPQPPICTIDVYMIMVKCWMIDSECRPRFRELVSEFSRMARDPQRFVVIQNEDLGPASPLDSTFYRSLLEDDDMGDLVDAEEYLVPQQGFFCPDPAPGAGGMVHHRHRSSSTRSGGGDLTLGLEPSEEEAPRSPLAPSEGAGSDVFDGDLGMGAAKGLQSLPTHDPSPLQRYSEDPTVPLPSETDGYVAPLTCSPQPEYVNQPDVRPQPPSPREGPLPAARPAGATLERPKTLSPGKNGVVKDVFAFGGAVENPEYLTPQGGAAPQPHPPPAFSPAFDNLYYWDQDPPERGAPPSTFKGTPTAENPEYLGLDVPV

ITK = biological target: T3, ITK (Homo sapiens, UniProt Q08881); assay: In vitro kinase activity assay (Nanosyn)
T3 sequence (Q08881 1-620): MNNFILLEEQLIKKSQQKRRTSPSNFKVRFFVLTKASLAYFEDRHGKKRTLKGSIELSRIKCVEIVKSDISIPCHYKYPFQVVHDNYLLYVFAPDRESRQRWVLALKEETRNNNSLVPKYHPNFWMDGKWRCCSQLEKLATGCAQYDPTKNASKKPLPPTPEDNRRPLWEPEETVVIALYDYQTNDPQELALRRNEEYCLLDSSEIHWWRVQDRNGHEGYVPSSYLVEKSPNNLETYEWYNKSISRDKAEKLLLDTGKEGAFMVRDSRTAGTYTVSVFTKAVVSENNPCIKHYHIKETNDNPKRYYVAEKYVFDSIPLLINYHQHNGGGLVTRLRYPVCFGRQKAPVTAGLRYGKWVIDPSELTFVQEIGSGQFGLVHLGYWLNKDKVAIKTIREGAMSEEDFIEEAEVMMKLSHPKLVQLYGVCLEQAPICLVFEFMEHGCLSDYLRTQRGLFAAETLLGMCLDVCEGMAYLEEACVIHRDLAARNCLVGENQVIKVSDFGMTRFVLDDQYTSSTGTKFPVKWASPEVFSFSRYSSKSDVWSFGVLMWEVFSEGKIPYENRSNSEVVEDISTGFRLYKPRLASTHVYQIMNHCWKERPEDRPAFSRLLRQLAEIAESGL

BTK [6] = biological target: T1, BTK; assay: biochemical; parameters: HTS: BTK preincubated 15 min with compound, then chemiluminescent covalent probe 3l; loss of luminescence at 30 min; conditions: 0.75 uM BTK, 1.5 uM probe 3l, 15 min preincubation

SMILES: C=C(COc1ccc2ccc(=O)oc2c1)C(=O)NCc1ccccc1 [1i]
- rate of depletion of 1i, k [1]: 0.24 h⁻¹
- rate of formation of coumarin, k [1]: 0.24 h⁻¹

SMILES: C=C(COc1ccc2ccc(=O)oc2c1)C(=O)N1CCC[C@@H](n2nc(-c3ccc(Oc4ccccc4)cc3)c3c(N)ncnc32)C1 [3k]
- increase of fluorescence intensity at 435 nm upon addition of BTK (BTK [4]): 30 fold
- time to saturation of fluorescence (BTK [4]): ≤ 10 min
- turn-on fluorescence with BSA (BSA): no reaction; also recorded: does not result in increased fluorescence
- IC50 (wild-type BTK; BTK IC50, 0.6 nM BTK, 5 μM ATP, Figure 4C): 1 nM

SMILES: C#CCCNC(=O)C(=C)COc1ccc2ccc(=O)oc2c1 [2a]
- in situ proteomic labeling (in-gel fluorescence) (Mino cells): labeled more proteins compared to 2b

SMILES: C=C(COC(C)=O)C(=O)N1CCC[C@@H](n2nc(-c3ccc(Oc4ccccc4)cc3)c3c(N)ncnc32)C1 [3h]
- IC50 (EGFR): 28 nM
- B220+ cells-activated (CD86 positive) (primary mouse B cells): 82.9%
- IC50 (wild-type BTK; BTK IC50, in vitro kinase activity assay): < 0.1 nM
- IC50 (wild-type BTK; BTK IC50, rounded, 2 h preincubation, 5 μM ATP): 0.1 nM
- IC50 (BLK): 0.6 nM
- IC50 (BMX): 0.3 nM
- IC50 (ERBB2): 196 nM
- IC50 (ITK): 295 nM

SMILES: CC(C)[C@]12O[C@H]1[C@@H]1O[C@@]13[C@@]1(C)CCC4=C(COC4=O)[C@@H]1C[C@@H]1O[C@@]13C2=O [PCM-0216318]
- inhibition at 10 µM (BTK [6]): -26.3%

The next lines start with the values.

- BTK inhibition (%) (BTK [2]): 133.1%
- inhibition at 10 µM (BTK [3]): 133%
SMILES: COc1c/c(=C2\C=c3ccccc3=N2)[nH]/c1=C\c1[nH]c(C)cc1C [PCM-0094986]

- chemiluminescence enhancement by BTK (total photon counts vs probe alone) (BTK [5]): 90 fold
- time to maximum chemiluminescence signal (BTK [5]): ≤ 20 min
SMILES: C=C(COc1c(/C=C/C(=O)OC)ccc(C2(OC)OOC23C2CC4CC(C2)CC3C4)c1Cl)C(=O)N1CCC[C@@H](n2nc(-c3ccc(Oc4ccccc4)cc3)c3c(N)ncnc32)C1 (stereo partly shown) [3l]

- BTK inhibition (%) (BTK [2]): 125.3%
- inhibition at 10 µM (BTK [3]): 125%
SMILES: Cc1cc(-c2ccc(N=Nc3ccc4c(S(=O)(=O)O)cc(S(=O)(=O)O)c(N)c4c3O)c(C)c2)ccc1N=Nc1ccc2c(S(=O)(=O)O)cc(S(=O)(=O)O)c(N)c2c1O [PCM-0214845]

Source: publication PMC8041284, “Tunable Methacrylamides for Covalent Ligand Directed Release Chemistry” (Journal of the American Chemical Society, 2021)
